Test system: RS4;11-BCL-2 G101V cells
Experiment: Cell proliferation assay (MTS), RS4;11-BCL-2 G101V engineered cells
Format: cell-based
Details: Homo sapiens, 120 h, read-out: RS4, 11 BCL2-G101V IC50
Description: MTS testing kit was purchased from Promega (Madison, WI, USA). The RPMI-1640, Fetal bovine serum and Penicillin-Streptomycin were purchased from BI (Biological Industries, Beit Haemek, Israel). Puromycin was purchased from Beyotime (shanghai, China). Dimethyl sulfoxide (DMSO) was purchased from Sigma (St. Louis., MO, USA). RS4;11-BCL-2 G101V (Cobioer Lot. #: CBD2021063013P4), RS4;11-BCL-2 D103E (Cobioer Lot. #: CBD2021063013P4), RS4;11-BCL-2 D103Y (Cobioer Lot. #: CBD2022012101P4) and RS4;11-BCL-2 F104L (Cobioer Lot. #: CBD2021063014P4) cells were cultured in RPMI1640 supplemented with 1 ug/mL puromycin, 100 U/mL Penicillin-Streptomycin and 10% FBS.
To investigate whether a compound is able to inhibit the activity of BCL-2 mutation in cells, a mechanism-based assay using engineered cell lines stably overexpressing BCL-2 mutation (RS4;11-BCL-2 G101V, RS4;11-BCL-2 D103E, RS4;11-BCL-2 D103Y, and RS4;11-BCL-2 F104L) was developed. In this assay, the inhibition of BCL-2 mutation was reflected by the inhibition of cell proliferation of engineered RS4;11 cells. Cells were plated into 96-well plates at optimized cell density (RS4;11-BCL-2 G101V: 5000 cells/well; RS4;11-BCL-2 D103E: 7500 cells/well; RS4;11-BCL-2 D103Y: 7500 cells/well; RS4;11-BCL-2 F104L: 5000 cells/well). Plates were incubated at 37° C., with 5% CO2 for 4 h (RS4;11-BCL-2 G101V, RS4;11-BCL-2 F104L) and 24 h (RS4;11-BCL-2 D103E, RS4;11-BCL-2 D103Y), respectively. Compounds were serially diluted and added to the plates with the final concentrations of 10000, 3333.3, 1111.1, 370.4, 123.5, 41.2, 13.7, 4.6 and 1.5 nM. Plates were incubated at 37° C., with 5% CO2 for 120 h (RS4; 11-BCL-2 G101V, RS4; 11-BCL-2 F104L) and 72 h (RS4;11-BCL-2 D103E, RS4;11-BCL-2 D103Y), respectively. 20 μl MTS was added into each well and the plates were incubated at 37° C., with 5% CO2 exactly for 2 h. The absorbance was measured by a microplate reader at 490 nm. IC50 values were calculated using GraphPad Prism 8.0 software.

Compound | IC50 [nM]
COc1nc2[nH]cc(F)c2cc1Oc1cc(N2CCC3(CC2)CC(N2CCN(C4CCC(O)CC4)C[C@H]2c2ccccc2C(C)C)C3)ccc1C(=O)NS(=O)(=O)c1cnc(NC[C@H]2CC[C@](C)(O)CC2)c([N+](=O)[O-])c1 (single isomer, unassigned) [Example 332] | 1
COc1nc2[nH]cc(F)c2cc1Oc1cc(N2CCC3(CC2)CC(N2CCN(C4COC4)C[C@H]2c2ccccc2C(C)C)C3)ccc1C(=O)NS(=O)(=O)c1cnc(NC[C@H]2CC[C@](C)(O)CC2)c([N+](=O)[O-])c1 [Example 131, 2-((3-fluoro-6-methoxy-1H-pyrrolo[2,3-b]pyridin-5-yl)oxy)-N-((6-((((1r,4r)-4-hydroxy-4-methylcyclohexyl)methyl)amino)-5-nitropyridin-3-yl)sulfonyl)-4-(2-((R)-2-(2-isopropylphenyl)-4-(oxetan-3-yl)piperazin-1-yl)-7-azaspiro[3.5]nonan-7-yl)benzamide] | 1
CC(C)c1ccccc1[C@@H]1CN(C)CCN1C1CC2(CCN(c3ccc(C(=O)NS(=O)(=O)c4cnc(NC[C@H]5CC[C@](C)(O)CC5)c([N+](=O)[O-])c4)c(Oc4cnc5[nH]cc(F)c5c4)c3)CC2)C1 [Example 139, 2-((3-fluoro-1H-pyrrolo[2,3-b]pyridin-5-yl)oxy)-N-((6-((((1r,4r)-4-hydroxy-4-methylcyclohexyl)methyl)amino)-5-nitropyridin-3-yl)sulfonyl)-4-(2-((R)-2-(2-isopropylphenyl)-4-methylpiperazin-1-yl)-7-azaspiro[3.5]nonan-7-yl)benzamide] | 1
COc1nc2[nH]cc(F)c2cc1Oc1cc(N2CCC3(CC2)CC(N2CCN(C4CC4)C[C@H]2c2ccccc2C(C)C)C3)ccc1C(=O)NS(=O)(=O)c1cnc(NC[C@H]2CC[C@](C)(O)CC2)c([N+](=O)[O-])c1 [Example 143, 4-(2-((R)-4-cyclopropyl-2-(2-isopropylphenyl)piperazin-1-yl)-7-azaspiro[3.5]nonan-7-yl)-2-((3-fluoro-6-methoxy-1H-pyrrolo[2,3-b]pyridin-5-yl)oxy)-N-((6-((((1r,4r)-4-hydroxy-4-methylcyclohexyl)methyl)amino)-5-nitropyridin-3-yl)sulfonyl)benzamide] | 1
CC(C)c1ccccc1[C@@H]1CN(C2CC2)CCN1C1CC2(CCN(c3ccc(C(=O)NS(=O)(=O)c4cnc(NC[C@H]5CC[C@](C)(O)CC5)c([N+](=O)[O-])c4)c(Oc4cnc5[nH]cc(F)c5c4)c3)CC2)C1 [Example 145, 4-(2-((R)-4-cyclopropyl-2-(2-isopropylphenyl)piperazin-1-yl)-7-azaspiro[3.5]nonan-7-yl)-2-((3-fluoro-1H-pyrrolo[2,3-b]pyridin-5-yl)oxy)-N-((6-((((1r,4r)-4-hydroxy-4-methylcyclohexyl)methyl)amino)-5-nitropyridin-3-yl)sulfonyl)benzamide] | 1
CC(C)c1ccccc1[C@@H]1CN(C2COC2)CCN1C1CC2(CCN(c3ccc(C(=O)NS(=O)(=O)c4cnc(NC[C@H]5CC[C@](C)(O)CC5)c([N+](=O)[O-])c4)c(Oc4cnc5[nH]cc(F)c5c4)c3)CC2)C1 [Example 205, 2-((3-fluoro-1H-pyrrolo[2,3-b]pyridin-5-yl)oxy)-N-((6-((((1r,4r)-4-hydroxy-4-methylcyclohexyl)methyl)amino)-5-nitropyridin-3-yl)sulfonyl)-4-(2-((R)-2-(2-isopropylphenyl)-4-(oxetan-3-yl)piperazin-1-yl)-7-azaspiro[3.5]nonan-7-yl)benzamide] | 1
COc1nc2[nH]cc(F)c2cc1Oc1cc(N2CCC3(CC2)CC(N2CCN(Cc4ccc(C#N)cc4)C[C@H]2c2ccccc2C(C)C)C3)ccc1C(=O)NS(=O)(=O)c1cnc(NC[C@H]2CC[C@](C)(O)CC2)c([N+](=O)[O-])c1 [Example 236, 4-(2-((R)-4-(4-cyanobenzyl)-2-(2-isopropylphenyl)piperazin-1-yl)-7-azaspiro[3.5]nonan-7-yl)-2-((3-fluoro-6-methoxy-1H-pyrrolo[2,3-b]pyridin-5-yl)oxy)-N-((6-((((1r,4r)-4-hydroxy-4-methylcyclohexyl)methyl)amino)-5-nitropyridin-3-yl)sulfonyl)benzamide] | 1
CCOc1nc2[nH]cc(F)c2cc1Oc1cc(N2CCC3(CC2)CC(N2CCN(Cc4ccc(OC)c5oc(C)nc45)C[C@H]2c2ccccc2C(C)C)C3)ccc1C(=O)NS(=O)(=O)c1cnc(NC[C@H]2CC[C@](C)(O)CC2)c([N+](=O)[O-])c1 [Example 246, 2-((6-ethoxy-3-fluoro-1H-pyrrolo[2,3-b]pyridin-5-yl)oxy)-N-((6-((((1r,4r)-4-hydroxy-4-methylcyclohexyl)methyl)amino)-5-nitropyridin-3-yl)sulfonyl)-4-(2-((R)-2-(2-isopropylphenyl)-4-((7-methoxy-2-methylbenzo[d]oxazol-4-yl)methyl)piperazin-1-yl)-7-azaspiro[3.5]nonan-7-yl)benzamide] | 2

Continued by falling IC50, values first:

IC50 [nM] | Compound
1 | COc1ccc(CN2CCN(C3CC4(CCN(c5ccc(C(=O)NS(=O)(=O)c6cnc(NC[C@H]7CC[C@](C)(O)CC7)c([N+](=O)[O-])c6)c(Oc6cc7c(F)c[nH]c7nc6OC)c5)CC4)C3)[C@H](c3ccccc3C3CC3)C2)cc1 [Example 52, 4-(2-((R)-2-(2-cyclopropylphenyl)-4-(4-methoxybenzyl)piperazin-1-yl)-7-azaspiro[3.5]nonan-7-yl)-2-((3-fluoro-6-methoxy-1H-pyrrolo[2,3-b]pyridin-5-yl)oxy)-N-((6-((((1r,4r)-4-hydroxy-4-methylcyclohexyl)methyl)amino)-5-nitropyridin-3-yl)sulfonyl)benzamide]
1 | COc1nc2[nH]cc(F)c2cc1Oc1cc(N2CCC3(CC2)CC(N2CCN(Cc4ccnc(N)c4)C[C@H]2c2ccccc2C(C)C)C3)ccc1C(=O)NS(=O)(=O)c1cnc(NC[C@H]2CC[C@](C)(O)CC2)c([N+](=O)[O-])c1 [Example 70, 4-(2-((R)-4-((2-aminopyridin-4-yl)methyl)-2-(2-isopropylphenyl)piperazin-1-yl)-7-azaspiro[3.5]nonan-7-yl)-2-((3-fluoro-6-methoxy-1H-pyrrolo[2,3-b]pyridin-5-yl)oxy)-N-((6-((((1r,4r)-4-hydroxy-4-methylcyclohexyl)methyl)amino)-5-nitropyridin-3-yl)sulfonyl)benzamide]
1 | CCOc1nc2[nH]cc(F)c2cc1Oc1cc(N2CCC3(CC2)CC(N2CCN(Cc4ccc(OC)cc4F)C[C@H]2c2ccccc2C(C)C)C3)ccc1C(=O)NS(=O)(=O)c1cnc(NC[C@H]2CC[C@](C)(O)CC2)c([N+](=O)[O-])c1 [Example 106, 2-((6-ethoxy-3-fluoro-1H-pyrrolo[2,3-b]pyridin-5-yl)oxy)-4-(2-((R)-4-(2-fluoro-4-methoxybenzyl)-2-(2-isopropylphenyl)piperazin-1-yl)-7-azaspiro[3.5]nonan-7-yl)-N-((6-((((1r,4r)-4-hydroxy-4-methylcyclohexyl)methyl)amino)-5-nitropyridin-3-yl)sulfonyl)benzamide]
1 | COc1nc2[nH]cc(F)c2cc1Oc1cc(N2CCC3(CC2)CC(N2CCN(C)C[C@H]2c2ccccc2C(C)C)C3)ccc1C(=O)NS(=O)(=O)c1cnc(NC[C@H]2CC[C@](C)(O)CC2)c([N+](=O)[O-])c1 [Example 137, 2-((3-fluoro-6-methoxy-1H-pyrrolo[2,3-b]pyridin-5-yl)oxy)-N-((6-((((1r,4r)-4-hydroxy-4-methylcyclohexyl)methyl)amino)-5-nitropyridin-3-yl)sulfonyl)-4-(2-((R)-2-(2-isopropylphenyl)-4-methylpiperazin-1-yl)-7-azaspiro[3.5]nonan-7-yl)benzamide]
1 | COc1cc(CN2CCN(C3CC4(CCN(c5ccc(C(=O)NS(=O)(=O)c6cnc(NC[C@H]7CC[C@](C)(O)CC7)c([N+](=O)[O-])c6)c(Oc6cnc7[nH]cc(F)c7c6)c5)CC4)C3)[C@H](c3ccccc3C(C)C)C2)ncc1C1CC1 [Example 251, 4-(2-((R)-4-((5-cyclopropyl-4-methoxypyridin-2-yl)methyl)-2-(2-isopropylphenyl)piperazin-1-yl)-7-azaspiro [3.5]nonan-7-yl)-2-((3-fluoro-1H-pyrrolo[2,3-b]pyridin-5-yl)oxy)-N-((6-((((1r,4r)-4-hydroxy-4-methylcyclohexyl)methyl)amino)-5-nitropyridin-3-yl)sulfonyl)benzamide]

— US20250122191A1, “COMPOUNDS AS BCL-2 INHIBITORS” (Fochon Biosciences, Ltd, priority 2021, published 2025)
